{"source": "patent US6974574B2", "about": "“Methods of inducing an HIV specific response using a Vpr-specific epitope” (The General Hospital Corporation, priority 2001, dated 2005)", "key": {"CD8+ T cells": {"system": "CD8+ T cells", "assay": "Flow cytometric detection of antigen-induced intracellular IFN-γ", "type": "cell-based, human", "conditions": "subject AC-06", "procedure": "CD8+ T cells were non-specifically expanded from PBMC over 10 days, using a bi-specific […]. Peptide-specific CD8+ T cell lines were subsequently isolated using a standard IFN-γ catching assay. After expansion 10-20×10^6 CD8+ T cells were incubated on 24-well-plates with 20 μM peptide and 1 ug/ml each of the mAbs anti-CD28 and anti-CD49d (Becton Dickinson) at 37° C., 5% CO2, for 6-8 hour. Cell were subsequently labeled with a bi-specific CD45/IFN-γ catching antibody and incubated for 45 min at 37° C., 5% CO2. After several washes, the IFN-γ producing cells were stained with a second IFN-γ-PE detection antibody and separated by anti-PE mAb labeled with magnetic beads (MACS, Miltenyi Biotech, Hamburg, Germany). The isolated cells were then expanded for 10 days using autologous irradiated feeders.\nIntracellular cytokine staining assays were performed using known methods, e.g.,described by Pitcher et al., 1999, Nature Medicine 5:518 or Goulder et al, 2000, J. Exp. Med. 192:1819). […] Cells were then washed and analyzed on a FACSort Flowcytometer (Becton Dickinson Immunocytometry systems, San Jose, Calif.) using peridinin chlorophyl protein (PerCP), allophycocyanin (APC) and fluorescein isothiocyanate (FITC) as fluorescent parameters. […]"}, "[1]": {"system": "PBMC (CD8+ T cells) of HIV-1 infected individuals", "assay": "IFN-γ Elispot assay with PBMC and synthetic HIV-1 peptides", "type": "cell-based, human", "procedure": "Peptides were added directly to the wells at a final concentration of 1×10^−5 molar. Cells were added to the wells at 50,000 to 100,000 cells per well. The plates were incubated at 37° C., 5% CO2 overnight (14-16 h) and then processed as described. IFN-γ producing cells were counted by direct visualization and are expressed as spot forming cells (SFC) per 10^6 cells. The number of specific IFN-γ secreting T-cells was calculated by subtracting the negative control value from the established SFC count. […] Responses ≧40 SFC per 10^6 input cells above background were considered positive. The positive control consisted of incubation of 100,000 PBMC with phytohaemagglutinin (PHA). […] Fine mapping of epitopes by Elispot assay was performed, using peptide truncations (e.g., as described in Altfield et al., 2000, J. Virol. 74:8541). 100,000 PBMC per well were incubated with concentrations from 10^−4 M to 10^−11 M of peptide overnight on the Elispot plate. All assays were run in duplicate. The optimal peptide was defined as the peptide that induced 50% maximal specific IFN-γ production of T-cells at the lowest peptide concentration."}, "HIV": {"system": "HIV", "assay": "Level of CTL immune response elicited by peptide immunogen"}}, "note": "Values joined by “and” are separate entries in the source; they are usually repeats but may differ in a detail not shown here. Equal entries are not always repeated."}
{"substance": "GPGHKARVL (Human immunodeficiency virus type 1)", "values": [{"measurement": "contribution to total HIV-1-specific CD8 responses", "setting": "CD8+ T cells", "result": 32, "unit": "%"}, {"measurement": "percentage of CD8+ T cells specific for the epitope, intracellular IFN-γ", "setting": "CD8+ T cells", "result": 5.6, "unit": "%"}]}
{"substance": "REPHNEWTL (Human immunodeficiency virus type 1)", "values": [{"measurement": "recognition (individuals with the corresponding HLA class I alleles that responded to the epitope)", "setting": "[1]", "result": "1/1"}]}
{"substance": "ISKKAKGWF (Human immunodeficiency virus type 1)", "values": [{"measurement": "recognition (individuals with the corresponding HLA class I alleles that responded to the epitope)", "setting": "[1]", "result": "2/6"}]}
{"substance": "RIRTWKSLVK (Human immunodeficiency virus type 1)", "values": [{"measurement": "recognition (individuals with the corresponding HLA class I alleles that responded to the epitope)", "setting": "[1]", "result": "3/15"}]}
{"substance": "vif-3: overlapping peptide (12-18mer) spanning the HIV-1 SF2 B clade Vif sequence (RIRTWKSLVK; Human immunodeficiency virus type 1)", "values": [{"measurement": "Magnitude of peptide-specific CD8+ T cell responses against Vif overlapping peptides, IFN-γ ELISPOT", "setting": "[1]; individual 6003", "result": 0, "unit": "SFC/10^6 PMBC"}, {"measurement": "Magnitude of peptide-specific CD8+ T cell responses against Vif overlapping peptides, IFN-γ ELISPOT", "setting": "[1]; individual 6007", "result": 0, "unit": "SFC/10^6 PMBC"}, {"measurement": "Magnitude of peptide-specific CD8+ T cell responses against Vif overlapping peptides, IFN-γ ELISPOT", "setting": "[1]; individual 6009", "result": 290, "unit": "SFC/10^6 PMBC"}, {"measurement": "Magnitude of peptide-specific CD8+ T cell responses against Vif overlapping peptides, IFN-γ ELISPOT", "setting": "[1]; individual AC-01", "result": 0, "unit": "SFC/10^6 PMBC"}, {"measurement": "Magnitude of peptide-specific CD8+ T cell responses against Vif overlapping peptides, IFN-γ ELISPOT", "setting": "[1]; individual AC-04", "result": 0, "unit": "SFC/10^6 PMBC"}, {"measurement": "Magnitude of peptide-specific CD8+ T cell responses against Vif overlapping peptides, IFN-γ ELISPOT", "setting": "[1]; individual AC-06", "result": 680, "unit": "SFC/10^6 PMBC"}, {"measurement": "Magnitude of peptide-specific CD8+ T cell responses against Vif overlapping peptides, IFN-γ ELISPOT", "setting": "[1]; individual AC-07", "result": 0, "unit": "SFC/10^6 PMBC"}, {"measurement": "Magnitude of peptide-specific CD8+ T cell responses against Vif overlapping peptides, IFN-γ ELISPOT", "setting": "[1]; individual AC-13", "result": 0, "unit": "SFC/10^6 PMBC"}, {"measurement": "Magnitude of peptide-specific CD8+ T cell responses against Vif overlapping peptides, IFN-γ ELISPOT", "setting": "[1]; individual AC-27", "result": 0, "unit": "SFC/10^6 PMBC"}, {"measurement": "Magnitude of peptide-specific CD8+ T cell responses against Vif overlapping peptides, IFN-γ ELISPOT", "setting": "[1]; individual AC-31", "result": 0, "unit": "SFC/10^6 PMBC"}, {"measurement": "Magnitude of peptide-specific CD8+ T cell responses against Vif overlapping peptides, IFN-γ ELISPOT", "setting": "[1]; individual AC-36", "result": 0, "unit": "SFC/10^6 PMBC"}, {"measurement": "Magnitude of peptide-specific CD8+ T cell responses against Vif overlapping peptides, IFN-γ ELISPOT", "setting": "[1]; individual AC-42", "result": 0, "unit": "SFC/10^6 PMBC"}, {"measurement": "Magnitude of peptide-specific CD8+ T cell responses against Vif overlapping peptides, IFN-γ ELISPOT", "setting": "[1]; individual AC-43", "result": 0, "unit": "SFC/10^6 PMBC"}, {"measurement": "Magnitude of peptide-specific CD8+ T cell responses against Vif overlapping peptides, IFN-γ ELISPOT", "setting": "[1]; individual AC-46", "result": 0, "unit": "SFC/10^6 PMBC"}, {"measurement": "Magnitude of peptide-specific CD8+ T cell responses against Vif overlapping peptides, IFN-γ ELISPOT", "setting": "[1]; individual AC-59", "result": 0, "unit": "SFC/10^6 PMBC"}, {"measurement": "Magnitude of peptide-specific CD8+ T cell responses against Vif overlapping peptides, IFN-γ ELISPOT", "setting": "[1]; individual AC-TZA", "result": 0, "unit": "SFC/10^6 PMBC"}, {"measurement": "Magnitude of peptide-specific CD8+ T cell responses against Vif overlapping peptides, IFN-γ ELISPOT", "setting": "[1]; individual CMW", "result": 0, "unit": "SFC/10^6 PMBC"}, {"measurement": "Magnitude of peptide-specific CD8+ T cell responses against Vif overlapping peptides, IFN-γ ELISPOT", "setting": "[1]; individual JMV", "result": 0, "unit": "SFC/10^6 PMBC"}, {"measurement": "Magnitude of peptide-specific CD8+ T cell responses against Vif overlapping peptides, IFN-γ ELISPOT", "setting": "[1]; individual JRH", "result": 430, "unit": "SFC/10^6 PMBC"}, {"measurement": "Magnitude of peptide-specific CD8+ T cell responses against Vif overlapping peptides, IFN-γ ELISPOT", "setting": "[1]; individual TMH#4", "result": 0, "unit": "SFC/10^6 PMBC"}]}
{"substance": "HPRVSSEVHI (Human immunodeficiency virus type 1)", "values": [{"measurement": "recognition (individuals with the corresponding HLA class I alleles that responded to the epitope)", "setting": "[1]", "result": "3/8"}]}
{"substance": "THPRVSSEVHIPLG (Human immunodeficiency virus type 1) [vif-10]", "values": [{"measurement": "Magnitude of peptide-specific CD8+ T cell responses against Vif overlapping peptides, IFN-γ ELISPOT", "setting": "[1]; individual 6003", "result": 0, "unit": "SFC/10^6 PMBC"}, {"measurement": "Magnitude of peptide-specific CD8+ T cell responses against Vif overlapping peptides, IFN-γ ELISPOT", "setting": "[1]; individual 6007", "result": 0, "unit": "SFC/10^6 PMBC"}, {"measurement": "Magnitude of peptide-specific CD8+ T cell responses against Vif overlapping peptides, IFN-γ ELISPOT", "setting": "[1]; individual 6009", "result": 40, "unit": "SFC/10^6 PMBC"}, {"measurement": "Magnitude of peptide-specific CD8+ T cell responses against Vif overlapping peptides, IFN-γ ELISPOT", "setting": "[1]; individual AC-01", "result": 0, "unit": "SFC/10^6 PMBC"}, {"measurement": "Magnitude of peptide-specific CD8+ T cell responses against Vif overlapping peptides, IFN-γ ELISPOT", "setting": "[1]; individual AC-04", "result": 0, "unit": "SFC/10^6 PMBC"}, {"measurement": "Magnitude of peptide-specific CD8+ T cell responses against Vif overlapping peptides, IFN-γ ELISPOT", "setting": "[1]; individual AC-06", "result": 11800, "unit": "SFC/10^6 PMBC"}, {"measurement": "magnitude of CTL response by Elispot", "setting": "[1]; individual AC-06, text", "result": 1180, "unit": "SFC/10^6 PBMC"}, {"measurement": "Magnitude of peptide-specific CD8+ T cell responses against Vif overlapping peptides, IFN-γ ELISPOT", "setting": "[1]; individual AC-07", "result": 0, "unit": "SFC/10^6 PMBC"}, {"measurement": "Magnitude of peptide-specific CD8+ T cell responses against Vif overlapping peptides, IFN-γ ELISPOT", "setting": "[1]; individual AC-13", "result": 0, "unit": "SFC/10^6 PMBC"}, {"measurement": "Magnitude of peptide-specific CD8+ T cell responses against Vif overlapping peptides, IFN-γ ELISPOT", "setting": "[1]; individual AC-27", "result": 0, "unit": "SFC/10^6 PMBC"}, {"measurement": "Magnitude of peptide-specific CD8+ T cell responses against Vif overlapping peptides, IFN-γ ELISPOT", "setting": "[1]; individual AC-31", "result": 0, "unit": "SFC/10^6 PMBC"}, {"measurement": "Magnitude of peptide-specific CD8+ T cell responses against Vif overlapping peptides, IFN-γ ELISPOT", "setting": "[1]; individual AC-36", "result": 0, "unit": "SFC/10^6 PMBC"}, {"measurement": "Magnitude of peptide-specific CD8+ T cell responses against Vif overlapping peptides, IFN-γ ELISPOT", "setting": "[1]; individual AC-42", "result": 0, "unit": "SFC/10^6 PMBC"}, {"measurement": "Magnitude of peptide-specific CD8+ T cell responses against Vif overlapping peptides, IFN-γ ELISPOT", "setting": "[1]; individual AC-43", "result": 0, "unit": "SFC/10^6 PMBC"}, {"measurement": "Magnitude of peptide-specific CD8+ T cell responses against Vif overlapping peptides, IFN-γ ELISPOT", "setting": "[1]; individual AC-46", "result": 0, "unit": "SFC/10^6 PMBC"}, {"measurement": "Magnitude of peptide-specific CD8+ T cell responses against Vif overlapping peptides, IFN-γ ELISPOT", "setting": "[1]; individual AC-59", "result": 840, "unit": "SFC/10^6 PMBC"}, {"measurement": "Magnitude of peptide-specific CD8+ T cell responses against Vif overlapping peptides, IFN-γ ELISPOT", "setting": "[1]; individual AC-TZA", "result": 0, "unit": "SFC/10^6 PMBC"}, {"measurement": "Magnitude of peptide-specific CD8+ T cell responses against Vif overlapping peptides, IFN-γ ELISPOT", "setting": "[1]; individual CMW", "result": 0, "unit": "SFC/10^6 PMBC"}, {"measurement": "Magnitude of peptide-specific CD8+ T cell responses against Vif overlapping peptides, IFN-γ ELISPOT", "setting": "[1]; individual JMV", "result": 0, "unit": "SFC/10^6 PMBC"}, {"measurement": "Magnitude of peptide-specific CD8+ T cell responses against Vif overlapping peptides, IFN-γ ELISPOT", "setting": "[1]; individual JRH", "result": 0, "unit": "SFC/10^6 PMBC"}, {"measurement": "Magnitude of peptide-specific CD8+ T cell responses against Vif overlapping peptides, IFN-γ ELISPOT", "setting": "[1]; individual TMH#4", "result": 0, "unit": "SFC/10^6 PMBC"}]}
{"substance": "FPRIWLHGL (Human immunodeficiency virus type 1)", "values": [{"measurement": "recognition (individuals with the corresponding HLA class I alleles that responded to the epitope)", "setting": "[1]", "result": "2/2 and 4/8"}, {"measurement": "individuals expressing the HLA allele that targeted the epitope", "setting": "[1]; AL9: HLA-A2, FL9: HLA-B7", "result": "4/8"}]}
{"substance": "AVRHFPRIW", "values": [{"measurement": "recognition (individuals with the corresponding HLA class I alleles that responded to the epitope)", "setting": "[1]", "result": "4/6"}]}
{"substance": "ALIRILQQL (Human immunodeficiency virus type 1)", "values": [{"measurement": "recognition (individuals with the corresponding HLA class I alleles that responded to the epitope)", "setting": "[1]", "result": "8/24"}, {"measurement": "level of the immune response elicited, compared with SEQ ID NO:1", "setting": "HIV", "result": "at least 1 log"}]}
{"substance": "LADQLIHLHY (Human immunodeficiency virus type 1)", "values": [{"measurement": "recognition (individuals with the corresponding HLA class I alleles that responded to the epitope)", "setting": "[1]", "result": "2/5"}]}
